Source: patent US20050107315A1, “Mammary-associated serum amuloid a3 promoter sequences and used for same” (Board of Regents of the University of Nebraska, priority 2001, published 2005)

Experiments:
[1] = tested on: EPEC adherence to HT29 human intestinal cells; assay: Inhibition of EPEC adherence to HT29 cells (FIG. 4B); format: cell-based, enteropathogenic Escherichia coli; conditions: before 10^6 CFU/well EPEC, 3 h incubation, P<0.03
Procedure: FIG. 4B is a graph showing the comparative inhibition of EPEC adherence to HT29 human intestinal cells grown in a glucose-free galactose-containing cell culture medium to enhance MUC3 expression. Each well received either 10^9 CFU of the probiotic L. rhamnosus strain GG (LrGG), a single dose (1×) of the 10-mer peptide at 50 μg/mL (LS, Bov50, or Hum50) or at 250 μg/mL (Bov250 or Hum250), or two separate doses (2×) at 1 h intervals of the 10-mer peptide at 250 μg/mL. Samples were incubated at 37° C. with the HT29 cells for either a total of 1 h (single dose, 1×) or 2 h (two doses, 2×) prior to the addition of 10^6 CFU/well of EPEC. After a 3 h incubation, EPEC adherent to the HT29 cells were quantified by determining CFU/well. Results are expressed as means ±SEM of 2-6 independent experiments run in triplicate. Amino acid sequences for the 10-mer peptides are detailed in Table 1 referred to on page 37.
Different mucin genes have been identified and to date, thirteen human mucin genes have been identified. However, MUC3 mucin is the predominant small intestinal mucin. It has previously been shown that the MUC3 mucins are effective in preventing the adherence of enteropathogenic Escherichia coli (EPEC) to intestinal epithelial cells. […] It is also well known that breast-feeding infants are far less susceptible to infectious diarrhea than formula fed infants. There are a number of theories why this is so, but it is hypothesized that milk-associated amyloid (colostrum SAA) may be an important inducer of MUC3 gene expression. Applicant has evaluated MUC3 mRNA expression using an in vitro human cell culture assay system. […] To further explore this finding, Applicant has evaluated the functional specificity of the N-terminal peptide sequence of colostrum SAA by evaluation of MUC3 expression in the same in vitro assay using colostrum SAA N-terminal peptide sequences that have been randomly scrambled and a colostrum SAA peptide sequence downstream of the N-terminal sequence. If the expression of MUC3 is increased then intestinal cells grown in the presence of colostrum SAA should have a greater capacity to inhibit adherence of bacterial pathogens. This was studied (FIG. 2B) using EPEC in an in vitro assay system pre-incubated with colostrum SAA in the cell culture medium. Enteropathogenic E. coli are non-invasive, non-toxin producing pathogens that have been recognized as a significant cause of diarrhea in third world countries and in day care settings in developed countries. Future studies will evaluate the benefits of colostrum SAA in in vivo studies as well as characterized animal equivalent to human EPEC. […]

MUC2 mRNA = MUC2 mRNA induction in intestinal epithelial cells (MUC2 mRNA/28S rRNA ratio); format: cell-based, human; conditions: for MUC2 mRNA/28S rRNA ratio, mean: conditions favoring MUC2 expression, peptides at conditions optimized for MUC3 (50 μg/ml, 30 min), control = 100
Description: (§1) These four peptides were used in a cell culture assay designed to evaluate them for their properties of inducing mucin (MUC) mRNA production, either MUC3 or MUC2 according to the methods described by Mack et al. (Biochem. Biophys. Res. Commun. 199: 1012-1018, 1994 and Am J Physiol. Vol. 4, part 1, pg. G841-950, 1999).
MUC2 Stimulation. To address whether the N-Terminal 10 amino acid bovine colostrum-SAA peptide would stimulate mRNA synthesis for MUC2 production, intestinal epithelial cells were cultured under conditions favoring MUC2 expression rather than MUC3. All peptides were used at concentrations and conditions that were previously optimized for MUC3 stimulation. None of the peptides stimulated the production of MUC2 mRNA. […] Additionally, conditions were changed to 2× the optimum MUC3 incubation time (1 hr). […] The evidence strongly indicates specificity of function in stimulating the production of a mucin produced mainly in the small intestine (MUC3) over one produced primarily in the large intestine (MUC2).

MUC3 mRNA = MUC3 mRNA induction in intestinal epithelial cells (MUC3 mRNA/28S rRNA ratio); format: cell-based, human; conditions: for MUC3 mRNA/28S rRNA ratio, mean / MUC3 mRNA stimulation (in words): peptides at 50 μg/ml, 30 minutes at 37° C.; for MUC3 mRNA/28S rRNA ratio, mean / MUC3/28S rRNA ratio, mean: control = 100; for MUC3/28S rRNA ratio, mean: 30 min 37° C.; for MUC3 mRNA stimulation (in words): versus control
Description: Different mucin genes have been identified and to date, thirteen human mucin genes have been identified. However, MUC3 mucin is the predominant small intestinal mucin. It has previously been shown that the MUC3 mucins are effective in preventing the adherence of enteropathogenic Escherichia coli (EPEC) to intestinal epithelial cells. […] It is also well known that breast-feeding infants are far less susceptible to infectious diarrhea than formula fed infants. There are a number of theories why this is so, but it is hypothesized that milk-associated amyloid (colostrum SAA) may be an important inducer of MUC3 gene expression. Applicant has evaluated MUC3 mRNA expression using an in vitro human cell culture assay system. […] To further explore this finding, Applicant has evaluated the functional specificity of the N-terminal peptide sequence of colostrum SAA by evaluation of MUC3 expression in the same in vitro assay using colostrum SAA N-terminal peptide sequences that have been randomly scrambled and a colostrum SAA peptide sequence downstream of the N-terminal sequence. If the expression of MUC3 is increased then intestinal cells grown in the presence of colostrum SAA should have a greater capacity to inhibit adherence of bacterial pathogens. This was studied (FIG. 2B) using EPEC in an in vitro assay system pre-incubated with colostrum SAA in the cell culture medium. Enteropathogenic E. coli are non-invasive, non-toxin producing pathogens that have been recognized as a significant cause of diarrhea in third world countries and in day care settings in developed countries. Future studies will evaluate the benefits of colostrum SAA in in vivo studies as well as characterized animal equivalent to human EPEC. Colostrum associated SAA provides a means to naturally upregulate the innate protective mechanisms of the human intestine and would provide a novel form of therapy to a common problem that occurs all too often in the third world leads to death of infants and in the developed world countries and leads to significant morbidity and cost. Thus, this is an effective, natural, non-drug/chemical therapy for all infectious diarrhea.
as §1
Intestinal epithelial cells, Mack et al. 1994, 1999, were exposed to the N-terminal 10 amino acid bovine colostrum-SAA peptide at various concentrations for 30 minutes incubation at 37° C. The cells were incubated an additional hour following replacement of the test medium with fresh medium without peptide and then the total cellular mRNA isolated and analyzed for MUC3 specific mRNA.
MUC3 stimulating activity of the N-terminal 10 amino acid bovine colostrum-SAA peptide was compared to the activity of the “Limited Scramble”, the “Total Scramble” and “C-Terminal peptides”. Optimum time and temperature of incubation and concentration of peptides was for 30 minutes at 37° C. at 50 μg/ml respectively.

[2] = Isoelectric focusing / 2-D gel of SAA preparations; format: physicochemical, bovine
Description: The PROTEIN IEF Cell (BioRad) was used for the isoelectric focusing of the various SAA preparations. Ready Strip IPG Strips (BioRad Laboratories) with a pH range of 3-10 were used for the IEF. The second dimension (2-D) of the protein analysis was done by subjecting the IPG strips to 12% SDS-PAGE gel and electroblotting onto a PVDF membrane. The strips and blots were done in duplicate so that one of the blots could be stained with a protein stain, Coomassie Brilliant Blue, (CBB) and the other stained with the anti-SAA monoclonal antibody for the identification of the SAA protein isoforms. The samples also contained internal IEF standards (BioRad Laboratories) so that isoelectric point (pI) of each SAA isoforms could be determined. By comparing the antibody stained spots to the spots of the standards stained with CBB the apparent pI of the SAA isoforms could be determined. All of these procedures were done according to the protocol recommended by the manufacturer.
The proteins subjected to the IEF and 2-D analysis were either affinity purified as described for the cell culture fluid or, in the case of the serum only semi-purified by hydrophobic chromatography. SAA is a highly hydrophobic molecule and will bind readily to Octyl Sepharose beads and then under the appropriate conditions can be eluted off the matrix. Briefly, serum with an elevated SAA level was tumbled for one hour with an equal volume of Octyl Sepharose CL-4B gel to allow for hydrophobic binding of the proteins from the serum to the gel. […]
The PROTEIN IEF Cell (BioRad) was used for the isoelectric focusing of the MAA preparations. […] Ready strip IPG Strips (BioRad Laboratories) with a pH range of 3-10 and 7-10 were used for the IEF. […] By comparing the spots stained with the antibody on the blot of the 2D gel from the MAA purified from colostrum and the MAA from the culture fluid of MAC-T cells stimulated with LPS, the similarities of the isoforms could be determined. Each sample was first analyzed on a pH 3-10 IPG strip for the first dimension of separation and then a subsequent sample analyzed on a pH 7-10 IPG strip.

[3] = tested on: Bovine MAC-T mammary gland epithelial cells; assay: Colostrum-SAA production by MAC-T cells stimulated with prolactin (ELISA of growth media); format: cell-based
Procedure: Bovine MAC-T mammary gland epithelial cells were obtained from ATCC (CRL-10274) and cultured according to recommended conditions (Turner, J D and Huynh H. Immortalized bovine mammary epithelial cell line. U.S. Pat. No. 5,227,301 dated Jul. 13, 1993). MAC-T cells were cultured on Dulbecco's Modified Eagles Media (DMEM) supplemented with 10% Fetal Calf Serum (FCS), 5 μg/ml insulin, 1μg/ml hydrocortisone and fungizone. Cells were incubated at 37° C. with 5% CO2. For colostrum-SAA production the cells were seeded onto type I Collagen coated plates. After 14 hours of incubation, the cells were washed twice with Dulbecco's phosphate buffered saline (DPBS) and incubated in media (DMEM, 5 μg/ml insulin, 1 μg/ml hydrocortisone and 2.5% FCS) supplemented with prolactin from sheep pituitary gland (5 μg/ml) for the stimulation of colostrum-SAA production. Approximately one half of the media was replaced daily with fresh prolactin supplemented media. Standard ELISA for the quantitation of SAA was used to assay aliquots of the growth media collected on the different days for the presence of colostrum-SAA.
Cells were kept in culture for 41 days in media supplemented with prolactin. Levels of colostrum-SAA production reached a maximum of almost 3000 ng/ml.

GWLTFLKAAG [Hum]
EPEC adherence to HT29 cells relative to untreated cells (in words) ([1]; 10-mer peptide at 50 μg/mL): significantly decreased adherence of EPEC | EPEC adherence to HT29 cells relative to untreated cells (in words) ([1]; 10-mer peptide at 250 μg/mL): significantly decreased adherence of EPEC

GKFAWEGMTL [Total Scramble, control peptide, amino acids of the entire N-Terminal peptide arranged in random order, reference compound]
MUC2 mRNA/28S rRNA ratio, mean (MUC2 mRNA): 65.833 | MUC3 mRNA/28S rRNA ratio, mean (MUC3 mRNA): 109.333

SAADAAQRGPQQA [C-terminal, control 10 amino acid peptide in which the first 7 were from residues 62-69 of bovine SAA, reference compound]
MUC2 mRNA/28S rRNA ratio, mean (MUC2 mRNA): 67.500 | MUC3 mRNA/28S rRNA ratio, mean (MUC3 mRNA): 111.333

MWGTFLKEAG [N-terminal]
MUC2 mRNA stimulation (in words) (MUC2 mRNA; 100 and 500 μg/ml, and 2× incubation time (1 hr)): None of these changes resulted in MUC2 mRNA increase over control values | MUC2 mRNA stimulation (in words) (MUC2 mRNA; concentrations and conditions optimized for MUC3 stimulation): not significantly different | MUC2 mRNA/28S rRNA ratio, mean (MUC2 mRNA): 101.167 | optimum concentration for MUC3 mRNA stimulation (MUC3 mRNA; 30 minutes incubation at 37° C.): 50 µg/mL | MUC3/28S rRNA ratio, mean (MUC3 mRNA; peptide concentration 1 (μg/ml)): 105.429 | MUC3/28S rRNA ratio, mean (MUC3 mRNA; peptide concentration 10 (μg/ml)): 105.857 | MUC3/28S rRNA ratio, mean (MUC3 mRNA; peptide concentration 25 (μg/ml)): 145.000 | MUC3/28S rRNA ratio, mean (MUC3 mRNA; peptide concentration 50 (μg/ml)): 220.500 | MUC3/28S rRNA ratio, mean (MUC3 mRNA; peptide concentration 100 (μg/ml)): 103.125 | MUC3 mRNA/28S rRNA ratio, mean (MUC3 mRNA): 174.833 | MUC3 mRNA stimulation (in words) (MUC3 mRNA): increased MUC3 mRNA expression | MUC3 mRNA stimulation (in words) (MUC3 mRNA; listed as N-Terminal): the only peptide that stimulated MUC3 mRNA statistically significantly over the control values | EPEC adherence to HT29 cells relative to untreated cells (in words) ([1]; 10-mer peptide at 50 μg/mL): significantly decreased adherence of EPEC | EPEC adherence to HT29 cells relative to untreated cells (in words) ([1]; 10-mer peptide at 250 μg/mL): significantly decreased adherence of EPEC

MWGLTKFEAG [Limited Scramble, Bovine MAA with TFLK motif scrambled]
MUC2 mRNA/28S rRNA ratio, mean (MUC2 mRNA): 87.167 | MUC3 mRNA/28S rRNA ratio, mean (MUC3 mRNA): 95.000 | MUC3 mRNA stimulation (in words) (MUC3 mRNA): lack of stimulation

B1: colostrum-SAA: bovine mammary-associated serum amyloid A 3, purified from colostrum or MAC-T cell culture fluid (protein)
chain: QRWGTFLKEAGQGAKDMWRAYQDMKEANYRGADKYFHARGNYDAARRGPGGAWAAKVISNARETIQGITDPLFKGMTRDQVREDSKADQFANEWGRSGKDPNHFRPAGLPDKY
pI ([2]; from both colostrum and MAC-T cell culture fluid (prolactin), pH 3-10 IPG strips): greater than 8 | apparent pI ([2]; pH 3-10 IPG strips, internal IEF standards): 9.4-9.6 | pI ([2]; purified from culture fluid of MAC-T cells stimulated with LPS, only one isoform, pH 3-10 and 7-10 IPG strips): 9.4-9.6

B2: prolactin: prolactin from sheep pituitary gland (protein, UniProt P01240 31-229, looked up)
Prolactin: TPVCPNGPGNCQVSLRDLFDRAVMVSHYIHNLSSEMFNEFDKRYAQGKGFITMALNSCHTSSLPTPEDKEQAQQTHHEVLMSLILGLLRSWNDPLYHLVTEVRGMKGVPDAILSRAIEIEEENKRLLEGMEMIFGQVIPGAKETEPYPVWSGLPSLQTKDEDARHSAFYNLLHCLRRDSSKIDTYLKLLNCRIIYNNNC
maximum level of colostrum-SAA production ([3]; media supplemented with prolactin 5 μg/ml, 41 days in culture, collagen coated plates): ~3000 ng/mL | day by which measurable quantities of colostrum-SAA could be detected ([3]; prolactin at 5 μg/ml, MAC T cells, 13 days of stimulation (FIG. 2)): ≤ 1 days
